Data published in PubChem BioAssay AID624254 (Broad Institute, 2012).
Calls of active or inactive are those of the source. The rule behind the calls is not given here.

test: Luciferase light induction in v cholerae bh1651, agonist dose response, confirmatory (AID 624254); conditions: V. cholerae BH1651 luxOD47E, luciferase light induction, 6 h; at 50 µM (top of the series)

For `Brc1ccc(C2=Nn3c(nnc3-c3n[nH]c4c3CCC4)SC2)cc1`, which “activation (light increase)” value is on record?
Its value is “inactive”.

For `CCC(CCC(=O)Nc1cccc(C(=O)O)c1)C(=O)O` (configuration not stated), which “activation (light increase)” value is on record?
Its value is “inactive”.

With `O=C(Cc1ccc2c(c1)CCCC2)Nc1ccccc1Cl` as the compound, how does the “activation (light increase)” value read?
Its value is “inactive”.

For `COc1ccccc1NS(=O)(=O)c1cccc(C(=O)NCC(c2ccco2)N2CCCCC2)c1` (configuration not stated), which “activation (light increase)” value is on record?
The value was “inactive”.

Which “activation (light increase)” value does the source give for `COc1ccc(S(=O)(=O)N2CCSC2c2ccc(N)cc2)cc1` (configuration not stated) here?
Its value is “inactive”.

With `CS(=O)(=O)NNC(=O)c1sccc1OCc1ncc(C(F)(F)F)cc1Cl` as the compound, how does the “activation (light increase)” value read?
The value was “inactive”.

With `O=C(Oc1nsnc1N1CCCCC1)N1CCOCC1` as the compound, how does the “activation (light increase)” value read?
Its value is “inactive”.

For `CCCn1nnnc1NCc1ccc(OC)cc1`, which “activation (light increase)” value is on record?
Its value is “inactive”.

With `Cc1cc(C(=O)OCC(=O)Nc2c(Cl)cccc2C(F)(F)F)c(C)o1` as the compound, how does the “activation (light increase)” value read?
Its value is “inactive”.

For `COc1cc(S(=O)(=O)N(Cc2cccs2)C2CC2)ccc1-n1cnnn1`, which “activation (light increase)” value is on record?
Its value is “inactive”.

For `CCOc1ccccc1N(CC(=O)Nc1ccc2c(c1)OCCO2)S(C)(=O)=O`, which “activation (light increase)” value is on record?
Its value is “inactive”.

For `COc1ccc(C(=O)O)cc1S(=O)(=O)Nc1cccc(C(F)(F)F)c1`, which “activation (light increase)” value is on record?
Its value is “inactive”.

Which “activation (light increase)” value does the source give for `COc1ccccc1NC(=O)Cc1ccc(-c2ccccc2)cc1` here?
Its value is “inactive”.

For `O=C(CN1CCC(O)(c2cccc(C(F)(F)F)c2)CC1)NCCc1ccccc1`, which “activation (light increase)” value is on record?
Its value is “inactive”.

For `COc1ccccc1NC(=O)COC(=O)c1cc(C)oc1C`, which “activation (light increase)” value is on record?
Its value is “inactive”.

With `CC(OC(=O)Cn1cnc2c1c(=O)n(C)c(=O)n2C)C(=O)c1ccccc1` (configuration not stated) as the compound, how does the “activation (light increase)” value read?
The value was “inactive”.

Which “activation (light increase)” value does the source give for `Cc1ccc(OCCNC(=O)c2ccc(C)o2)cc1` here?
Its value is “inactive”.

Which “activation (light increase)” value does the source give for `Cc1onc(-c2ccccc2)c1C(=O)n1cccn1` here?
The value was “inactive”.

With `C[C@H]1CN([C@@H](C)CO)C(=O)c2cccc(NC(=O)Nc3ccc4c(c3)OCO4)c2O[C@H]1CN(C)S(=O)(=O)c1ccccc1` as the compound, how does the “activation (light increase)” value read?
The value was “inactive”.

With `CCC(C)(C)n1nnnc1CN1CCN(c2nc3ccc(C)cc3cc2C#N)CC1` as the compound, how does the “activation (light increase)” value read?
Its value is “inactive”.

Which “activation (light increase)” value does the source give for `O=C(NCCN1CCOCC1)c1cccc(NS(=O)(=O)c2ccc(Br)cc2)c1` here?
Its value is “inactive”.

For `COc1ccc(CNC(=O)c2ccc(Cl)c(S(=O)(=O)N3CCOCC3)c2)cc1OC`, which “activation (light increase)” value is on record?
The value was “inactive”.

With `CCOC(=O)c1c(C)[nH]c(C(=O)COC(=O)C2(C)CC2(Cl)Cl)c1C` (configuration not stated) as the compound, how does the “activation (light increase)” value read?
The value was “inactive”.

Which “activation (light increase)” value does the source give for `CN1CC(=O)N(CC(=O)Nc2ccc3c(c2)CCC3)C1=O` here?
Its value is “inactive”.

With `CCOc1ccc(S(=O)(=O)Nc2ccc(C(=O)NCC(c3ccco3)N3CCCCC3)cc2)cc1` (configuration not stated) as the compound, how does the “activation (light increase)” value read?
Its value is “inactive”.

Which “activation (light increase)” value does the source give for `O=C(COC(=O)c1ccc(Br)cc1)NC1CCCC1` here?
The value was “inactive”.

Which “activation (light increase)” value does the source give for `O=C(NCc1ccccc1F)C(=O)NCC1CCCN1S(=O)(=O)c1ccccc1` (configuration not stated) here?
The value was “inactive”.

With `CCCN1CCN(C(=O)CCCNC(=O)Cn2cnc3sc(C)c(C)c3c2=O)CC1` as the compound, how does the “activation (light increase)” value read?
Its value is “inactive”.

With `O=C(NCC(F)(F)F)Nc1ncccn1` as the compound, how does the “activation (light increase)” value read?
The value was “inactive”.

For `C[C@@H]1CN([C@@H](C)CO)C(=O)c2cccc(NC(=O)C3CC3)c2O[C@H]1CN(C)S(=O)(=O)c1cccs1`, which “activation (light increase)” value is on record?
The value was “inactive”.

For `C=CCn1c(=O)c(C(=O)NC(C)c2ccccc2)c(O)c2ccccc21` (configuration not stated), which “activation (light increase)” value is on record?
The value was “inactive”.

Which “activation (light increase)” value does the source give for `O=C(OCc1cc(=O)n2ccsc2n1)c1ccc(OC(F)F)cc1` here?
The value was “inactive”.

Which “activation (light increase)” value does the source give for `O=C(NCc1ccco1)c1cc2n(n1)C(C(F)(F)F)CC(c1ccc(Cl)c(Cl)c1)N2` (configuration not stated) here?
Its value is “inactive”.

With `COc1ccc(S(=O)(=O)N2CCCC(C(=O)NCc3ccncc3)C2)cc1` (configuration not stated) as the compound, how does the “activation (light increase)” value read?
The value was “inactive”.

With `COc1ccc(S(=O)(=O)Nc2ccc(S(=O)(=O)N3CCOCC3)cc2)cc1C` as the compound, how does the “activation (light increase)” value read?
The value was “inactive”.

With `CCN(CC)c1nc(-c2ccccc2)cc(C(F)(F)F)c1C#N` as the compound, how does the “activation (light increase)” value read?
The value was “inactive”.

With `CCCNC(=O)Cc1ccsc1` as the compound, how does the “activation (light increase)” value read?
Its value is “inactive”.

Which “activation (light increase)” value does the source give for `CCN(CC(=O)Nc1c(F)cccc1F)C(=O)C1CC(=O)N(c2ccccc2OC)C1` (configuration not stated) here?
The value was “inactive”.

For `COc1ccc2c(c1)CCC(C)N2S(=O)(=O)c1ccc(C2CNC(=O)C2)cc1` (configuration not stated), which “activation (light increase)” value is on record?
The value was “inactive”.

Which “activation (light increase)” value does the source give for `Cn1cnc(S(=O)(=O)Nc2ccc(-c3ccccc3)cc2)c1` here?
The value was “inactive”.

Which “activation (light increase)” value does the source give for `O=C(COC(=O)c1ccc(O)cc1)c1ccc2c(c1)OCCO2` here?
The value was “inactive”.

With `CCNC(=O)CCSc1nnc(-c2ccco2)o1` as the compound, how does the “activation (light increase)” value read?
The value was “inactive”.

With `COC(=O)c1[nH]c2ccc(C)cc2c1NC(=O)Nc1ccc(OC)cc1` as the compound, how does the “activation (light increase)” value read?
The value was “inactive”.

For `CN(C)C(=O)c1ccccc1NS(=O)(=O)c1cn(C)cn1`, which “activation (light increase)” value is on record?
Its value is “inactive”.

Which “activation (light increase)” value does the source give for `CCOC(=O)CC1C(=O)NCCN1C(=O)c1cccc(C(F)(F)F)c1` (configuration not stated) here?
Its value is “inactive”.

For `CN(Cc1cn[nH]c1-c1cc2ccccc2o1)CC1CCOCC1`, which “activation (light increase)” value is on record?
Its value is “inactive”.

Which “activation (light increase)” value does the source give for `CCCS(=O)(=O)N1CCCC(C(=O)NCCCN(C)c2ccccc2)C1` (configuration not stated) here?
Its value is “inactive”.

Which “activation (light increase)” value does the source give for `COc1ccc(C(=O)NC2CCSC2=O)cc1` (configuration not stated) here?
The value was “inactive”.

Which “activation (light increase)” value does the source give for `CCS(=O)(=O)N1CCN(C(=O)CCC2CCCC2)CC1` here?
The value was “inactive”.

Which “activation (light increase)” value does the source give for `O=C(CNC(=O)c1ccncc1)Nc1ccc(F)c(F)c1` here?
The value was “inactive”.

Which “activation (light increase)” value does the source give for `Fc1ccc(NCc2cn3ccccc3n2)cc1` here?
Its value is “inactive”.

With `CC(=O)Nc1ccccc1NS(=O)(=O)c1cn(C)cn1` as the compound, how does the “activation (light increase)” value read?
The value was “inactive”.

Which “activation (light increase)” value does the source give for `O=C(Nc1cccc(-c2ccc(N3CCOCC3)nn2)c1)c1ccc([N+](=O)[O-])cc1` here?
The value was “inactive”.

Which “activation (light increase)” value does the source give for `O=C(/C=C/c1ccc(OCCCF)cc1)NCc1ccc(Cl)cc1` here?
The value was “inactive”.

For `Cc1nnc2c3ccccc3c(-c3ccc(O)cc3)nn12`, which “activation (light increase)” value is on record?
Its value is “inactive”.

Which “activation (light increase)” value does the source give for `O=c1[nH]c2ccccc2n1Cc1ccc(Cl)cc1` here?
The value was “inactive”.

With `C=CCNC(=O)CCCOc1ccc(C)cc1` as the compound, how does the “activation (light increase)” value read?
Its value is “inactive”.

Which “activation (light increase)” value does the source give for `COc1ccc(C(CNC(=O)c2ccc(-c3cccc(C(F)(F)F)c3)o2)N2CCOCC2)cc1` (configuration not stated) here?
The value was “inactive”.

With `Cn1cnc(S(=O)(=O)Nc2ccc(Cl)cc2)c1` as the compound, how does the “activation (light increase)” value read?
The value was “inactive”.

Which “activation (light increase)” value does the source give for `CC(C)c1ccc(OCC(=O)NC2CCCC2)cc1` here?
The value was “inactive”.

For `COc1ccccc1N1CCN(C(=O)c2cc3c(s2)CCC3)CC1`, which “activation (light increase)” value is on record?
Its value is “inactive”.

With `CCOC(=O)c1ccccc1NC(=O)COC(=O)C1=COCCO1` as the compound, how does the “activation (light increase)” value read?
The value was “inactive”.

With `COc1ccc(NC(=O)CN(C)C(=O)c2cccc(S(=O)(=O)N3CCN(C)CC3)c2)cc1` as the compound, how does the “activation (light increase)” value read?
Its value is “inactive”.

For `N#CCSc1ccccc1NC(=O)COC(=O)CCNC(=O)c1ccc([N+](=O)[O-])cc1`, which “activation (light increase)” value is on record?
The value was “inactive”.

For `COC(=O)C1CCN(C(=O)CN(C)Cc2ccc(C(C)(C)C)cc2)CC1`, which “activation (light increase)” value is on record?
The value was “inactive”.

With `CN(CC(=O)Nc1ccc(F)c(F)c1F)C(=O)C1CCC1` as the compound, how does the “activation (light increase)” value read?
The value was “inactive”.

For `CC(=O)c1ccc(S(=O)(=O)Nc2cccc(-c3ccc4nncn4n3)c2)cc1`, which “activation (light increase)” value is on record?
The value was “inactive”.

Which “activation (light increase)” value does the source give for `Cc1ccc(OCCNC(=O)c2ccco2)cc1C` here?
The value was “inactive”.

Which “activation (light increase)” value does the source give for `COc1ccc(CCN(C)C(=O)c2cc(S(=O)(=O)N3CCCCCC3)ccc2OC)cc1OC` here?
The value was “inactive”.

Which “activation (light increase)” value does the source give for `CCOC(=O)Nc1ccc(S(=O)(=O)Nc2cc(C)nc(C)n2)cc1` here?
The value was “inactive”.

With `COc1ccc(S(=O)(=O)N2CCOCC2)cc1NC(=O)CSc1nnc(C2CC2)n1C1CC1` as the compound, how does the “activation (light increase)” value read?
Its value is “inactive”.

With `Cc1ccc(C)c(NC(=O)CN(C)C(=O)CCN2C(=O)c3ccccc3C2=O)c1` as the compound, how does the “activation (light increase)” value read?
Its value is “inactive”.

Which “activation (light increase)” value does the source give for `COc1ccc(-c2cc(CCCC(=O)NCCc3cc(OC)ccc3OC)no2)cc1` here?
Its value is “inactive”.

For `O=C(Cc1ccc2c(c1)CCCC2)Nc1ccccc1Br`, which “activation (light increase)” value is on record?
The value was “inactive”.

For `O=C(COC(=O)c1cc(Cl)ccc1Cl)NC1CCCC1`, which “activation (light increase)” value is on record?
Its value is “inactive”.

Which “activation (light increase)” value does the source give for `Nc1nnc(SCC(=O)Nc2ccc3c(c2)OCCO3)s1` here?
The value was “inactive”.

Which “activation (light increase)” value does the source give for `COc1ccc(NS(=O)(=O)c2cccc(C(=O)N3CCCC(C)C3)c2)cc1` (configuration not stated) here?
The value was “inactive”.

Which “activation (light increase)” value does the source give for `O=C(NCc1ccccc1)C1CCCN(S(=O)(=O)c2cccnc2)C1` (configuration not stated) here?
The value was “inactive”.

With `C[C@@H]1CN([C@H](C)CO)C(=O)c2cccc(NC(=O)C3CC3)c2O[C@H]1CN(C)S(=O)(=O)c1cccs1` as the compound, how does the “activation (light increase)” value read?
Its value is “inactive”.

For `CC(C)NC(=O)c1cnc(Sc2ncc(C(F)(F)F)cc2Cl)n1C`, which “activation (light increase)” value is on record?
The value was “inactive”.

For `CC(=O)Nc1ccc(NS(=O)(=O)c2cn(C)cn2)cc1`, which “activation (light increase)” value is on record?
Its value is “inactive”.

For `CCC(O)(CCN1CCCCC1)c1ccccc1` (configuration not stated), which “activation (light increase)” value is on record?
Its value is “inactive”.

With `O=C(CN1C(=O)CSC1=O)NC1CCCCC1` as the compound, how does the “activation (light increase)” value read?
The value was “inactive”.

With `Cc1cc2c(ncn2C)c(NS(=O)(=O)c2cc(Cl)ccc2Cl)c1C` as the compound, how does the “activation (light increase)” value read?
The value was “inactive”.

Which “activation (light increase)” value does the source give for `CC(C)CC(=O)N1CCN(Cc2ccccc2Br)CC1` here?
Its value is “inactive”.

For `CC1(C(=O)N2CCN(c3ccc([N+](=O)[O-])cc3)CC2)CC1(Cl)Cl` (configuration not stated), which “activation (light increase)” value is on record?
Its value is “inactive”.

For `C[C@H](CO)N1C[C@H](C)[C@@H](CN(C)S(=O)(=O)c2ccc(F)cc2)Oc2c(NC(=O)Nc3ccc4c(c3)OCO4)cccc2C1=O`, which “activation (light increase)” value is on record?
The value was “inactive”.
